What was measured:
[1] = tested on: normal primary NK cells, pool 1 (3 donors) (IL-2 2.5 ng/mL); experiment: percent inhibition of viability; higher = more inhibition; conditions: 72 h
[2] = tested on: normal primary NK cells, pool 3 (3 donors) (IL-2 2.5 ng/mL); experiment: as above; conditions: 72 h
DERL-7 (IL-2 2.5 ng/mL) [3] = experiment: as above; conditions: 72 h
NK-92 (IL-2 2.5 ng/mL) [4] = experiment: as above; conditions: 72 h
YT (IL-2 2.5 ng/mL) [5] = experiment: as above; conditions: 72 h
[6] = tested on: normal primary NK cells, pool 2 (3 donors) (IL-2 2.5 ng/mL); experiment: as above; conditions: 72 h
IMC-1 (IL-2 20 ng/mL) [7] = experiment: as above; conditions: 72 h
SNK-6 (IL-2 2.5 ng/mL) [8] = experiment: as above; conditions: 72 h
[9] = tested on: normal primary NK cells, pool 1 (3 donors), resting (IL-2 0 ng/mL); experiment: as above; conditions: 72 h
KAI3 (IL-2 2.5 ng/mL) [10] = experiment: as above; conditions: 72 h
NK-YS (IL-2 2.5 ng/mL) [11] = experiment: as above; conditions: 72 h
NKL (IL-2 2.5 ng/mL) [12] = experiment: as above; conditions: 72 h
KHYG-1 (IL-2 2.5 ng/mL) [13] = experiment: as above; conditions: 72 h
[14] = tested on: normal NK cells expanded with K562-aAPC; experiment: as above; conditions: 72 h, IL-2 2.5 ng/mL
Procedure: (§1)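 Drug sensitivity and resistance testing on K562-aAPC-expanded normal NK cells: 5 concentrations (10-fold steps over a 10,000-fold range), 72 h at 37 °C, viability by CellTiter-Glo normalised to DMSO and benzethonium chloride controls; DSS from the fitted curve.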

[15] = tested on: normal NK cells expanded with K562-aAPC; experiment: drug sensitivity score (DSS) (DSS units); higher = more sensitive; extreme values may be limits of the assay; conditions: 72 h; IL-2 2.5 ng/mL
Procedure: as §1

[16] = tested on: normal primary NK cells, pool 1 (3 donors) (IL-2 2.5 ng/mL); experiment: as above; conditions: 72 h
[17] = tested on: normal primary NK cells, pool 3 (3 donors) (IL-2 2.5 ng/mL); experiment: as above; conditions: 72 h
DERL-7 (IL-2 2.5 ng/mL) [18] = experiment: as above; conditions: 72 h
NK-92 (IL-2 2.5 ng/mL) [19] = experiment: as above; conditions: 72 h
YT (IL-2 2.5 ng/mL) [20] = experiment: as above; conditions: 72 h
[21] = tested on: normal primary NK cells, pool 2 (3 donors) (IL-2 2.5 ng/mL); experiment: as above; conditions: 72 h
IMC-1 (IL-2 20 ng/mL) [22] = experiment: as above; conditions: 72 h
SNK-6 (IL-2 2.5 ng/mL) [23] = experiment: as above; conditions: 72 h
[24] = tested on: normal primary NK cells, pool 1 (3 donors), resting (IL-2 0 ng/mL); experiment: as above; conditions: 72 h
KAI3 (IL-2 2.5 ng/mL) [25] = experiment: as above; conditions: 72 h
NK-YS (IL-2 2.5 ng/mL) [26] = experiment: as above; conditions: 72 h
NKL (IL-2 2.5 ng/mL) [27] = experiment: as above; conditions: 72 h
KHYG-1 (IL-2 2.5 ng/mL) [28] = experiment: as above; conditions: 72 h

CO[C@@H](C(=O)N1Cc2[nH]nc(NC(=O)c3ccc(N4CCN(C)CC4)cc3)c2C1)c1ccccc1 [Danusertib] (max concentration tested 10000 nM)
percent inhibition of viability [%]
Conditions	1 nM	10 nM	100 nM	1000 nM	10000 nM
DERL-7 (IL-2 2.5 ng/mL) [3]	4.21	7.76	28.8	56.9	73.3
IMC-1 (IL-2 20 ng/mL) [7]	-7.01	-4.49	6.37	93.6	99.5
KAI3 (IL-2 2.5 ng/mL) [10]	-6.41	-1.03	23.9	37.9	69.3
KHYG-1 (IL-2 2.5 ng/mL) [13]	-6.8	-6.2	5.51	66.7	86.5
NK-92 (IL-2 2.5 ng/mL) [4]	4	8.37	15.1	45.9	64.6
NK-YS (IL-2 2.5 ng/mL) [11]	-2.39	-4.33	9.93	70.3	61.7
NKL (IL-2 2.5 ng/mL) [12]	-10.8	-14.4	-11	20.2	64.9
SNK-6 (IL-2 2.5 ng/mL) [8]	-10.1	-21.1	-2.34	66.7	72.5
YT (IL-2 2.5 ng/mL) [5]	-0.26	-0.92	21.1	27.8	44.9
[1]	-7.78	14.4	8.28	17.6	41.4
[2]	-3.44	7.87	4.81	5.78	23.5
[6]	-7.19	11.2	11.8	13.2	39.9
[9]	2.29	22.1	18.6	2.51	-6.72
[14]	0.09	-2.41	-1.99	45	66.8

Conditions	drug sensitivity score
DERL-7 (IL-2 2.5 ng/mL) [18]	14.3
IMC-1 (IL-2 20 ng/mL) [22]	17.9
KAI3 (IL-2 2.5 ng/mL) [25]	10
KHYG-1 (IL-2 2.5 ng/mL) [28]	13.2
NK-92 (IL-2 2.5 ng/mL) [19]	10.4
NK-YS (IL-2 2.5 ng/mL) [26]	14.6
NKL (IL-2 2.5 ng/mL) [27]	6.51
SNK-6 (IL-2 2.5 ng/mL) [23]	12.2
YT (IL-2 2.5 ng/mL) [20]	7.27
[15]	8.98
[16]	4.29
[17]	1.46
[21]	3.85
[24]	0

C[C@@H]1C[C@H]2[C@@H]3CCC4=CC(=O)C=C[C@]4(C)[C@@]3(F)[C@@H](O)C[C@]2(C)[C@@]1(O)C(=O)CO [Dexamethasone] (max concentration tested 10000 nM)
percent inhibition of viability [%]
Conditions	1 nM	10 nM	100 nM	1000 nM	10000 nM
DERL-7 (IL-2 2.5 ng/mL) [3]	-2.49	63.1	100	101	101
IMC-1 (IL-2 20 ng/mL) [7]	-2.17	-4.52	-10.6	-12.7	-2.61
KAI3 (IL-2 2.5 ng/mL) [10]	-8.83	-13.5	-3.07	-3.87	31.2
KHYG-1 (IL-2 2.5 ng/mL) [13]	-1.02	14.1	39.9	50.3	69.1
NK-92 (IL-2 2.5 ng/mL) [4]	-14.3	-20.1	-19.3	-2.77	5.06
NK-YS (IL-2 2.5 ng/mL) [11]	-5.2	-1.29	1.38	4.74	18.8
NKL (IL-2 2.5 ng/mL) [12]	12.3	38.1	57.3	64.1	67.1
SNK-6 (IL-2 2.5 ng/mL) [8]	-0.75	-7.56	-4.28	-3.37	8.99
YT (IL-2 2.5 ng/mL) [5]	-0.83	11.3	22.4	36.4	45.4
[1]	2.6	42	68.9	80.5	86.6
[2]	-8.83	19.5	43.5	50.7	58
[6]	2.03	37.3	63.2	69.1	74.5
[9]	8.34	65.5	83.1	84.5	86.9
[14]	1.98	35.4	61.5	68.6	77.8

Conditions	drug sensitivity score
DERL-7 (IL-2 2.5 ng/mL) [18]	37.9
IMC-1 (IL-2 20 ng/mL) [22]	0
KAI3 (IL-2 2.5 ng/mL) [25]	1.14
KHYG-1 (IL-2 2.5 ng/mL) [28]	15.6
NK-92 (IL-2 2.5 ng/mL) [19]	0
NK-YS (IL-2 2.5 ng/mL) [26]	1.07
NKL (IL-2 2.5 ng/mL) [27]	24.6
SNK-6 (IL-2 2.5 ng/mL) [23]	0
YT (IL-2 2.5 ng/mL) [20]	9.59
[15]	25.3
[16]	28.9
[17]	17.3
[21]	26
[24]	35.4

CCc1cnn2c(NCc3ccc[n+]([O-])c3)cc(N3CCCC[C@H]3CCO)nc12 [Dinaciclib] (max concentration tested 1000 nM)
percent inhibition of viability [%]
Conditions	0.1 nM	1 nM	10 nM	100 nM	1000 nM
DERL-7 (IL-2 2.5 ng/mL) [3]	3.44	0.2	31.4	100	101
IMC-1 (IL-2 20 ng/mL) [7]	-1.04	-1.9	44	99.7	102
KAI3 (IL-2 2.5 ng/mL) [10]	5.48	7.7	54.5	108	110
KHYG-1 (IL-2 2.5 ng/mL) [13]	-3.45	-3.48	42.5	109	112
NK-92 (IL-2 2.5 ng/mL) [4]	-2.1	2.09	67.9	108	111
NK-YS (IL-2 2.5 ng/mL) [11]	-6.76	-1.49	87.6	104	109
NKL (IL-2 2.5 ng/mL) [12]	4.95	3.07	88.7	109	112
SNK-6 (IL-2 2.5 ng/mL) [8]	-7.12	-37	81.4	47.2	48.2
YT (IL-2 2.5 ng/mL) [5]	-2.44	2.09	93.8	108	111
[1]	-4.8	3.36	45.1	98.6	98.7
[2]	-4.86	2.55	72	99.3	100
[6]	-6.55	2.06	90.3	97.1	94.6
[9]	-4.86	1	21.3	91.6	92.6
[14]	-4.8	-2.24	30.3	101	102

Conditions	drug sensitivity score
DERL-7 (IL-2 2.5 ng/mL) [18]	22.5
IMC-1 (IL-2 20 ng/mL) [22]	23.7
KAI3 (IL-2 2.5 ng/mL) [25]	24.6
KHYG-1 (IL-2 2.5 ng/mL) [28]	23.6
NK-92 (IL-2 2.5 ng/mL) [19]	25.9
NK-YS (IL-2 2.5 ng/mL) [26]	28.3
NKL (IL-2 2.5 ng/mL) [27]	28.8
SNK-6 (IL-2 2.5 ng/mL) [23]	23.7
YT (IL-2 2.5 ng/mL) [20]	29.8
[15]	22.4
[16]	23.2
[17]	26.6
[21]	28.8
[24]	20

Cc1ccc(-n2nc(C(C)(C)C)cc2NC(=O)Nc2ccc(OCCN3CCOCC3)c3ccccc23)cc1 [Doramapimod] (max concentration tested 10000 nM)
percent inhibition of viability [%]
Conditions	1 nM	10 nM	100 nM	1000 nM	10000 nM
DERL-7 (IL-2 2.5 ng/mL) [3]	-1.24	0.45	-6.35	0.4	31.3
IMC-1 (IL-2 20 ng/mL) [7]	-7.13	-0.74	1.31	8.39	27.3
KAI3 (IL-2 2.5 ng/mL) [10]	-7.62	9.59	18.9	43.5	68
KHYG-1 (IL-2 2.5 ng/mL) [13]	-0.62	4.98	0.58	7.1	56.5
NK-92 (IL-2 2.5 ng/mL) [4]	13	11	8.99	11.7	71.5
NK-YS (IL-2 2.5 ng/mL) [11]	-8.49	3.68	5.33	24.4	63.3
NKL (IL-2 2.5 ng/mL) [12]	-7.33	-0.1	12	80.7	98.6
SNK-6 (IL-2 2.5 ng/mL) [8]	-8.06	6.04	-5.96	-39.3	6.22
YT (IL-2 2.5 ng/mL) [5]	1.11	9.26	7.83	16.7	45
[1]	2.74	-0.9	-0.42	-10.6	91.3
[2]	-11.6	-1.56	4.57	2.15	85.2
[6]	-9.43	-4.09	6.14	-0.89	85.1
[9]	0.09	-4.02	-3.55	3.17	94.7
[14]	-6.83	-0.74	-1.74	16.5	52.8

Conditions	drug sensitivity score
DERL-7 (IL-2 2.5 ng/mL) [18]	1.44
IMC-1 (IL-2 20 ng/mL) [22]	2.23
KAI3 (IL-2 2.5 ng/mL) [25]	10.7
KHYG-1 (IL-2 2.5 ng/mL) [28]	4.24
NK-92 (IL-2 2.5 ng/mL) [19]	5.9
NK-YS (IL-2 2.5 ng/mL) [26]	6.27
NKL (IL-2 2.5 ng/mL) [27]	16.4
SNK-6 (IL-2 2.5 ng/mL) [23]	0
YT (IL-2 2.5 ng/mL) [20]	3.98
[15]	5.25
[16]	4.39
[17]	5.02
[21]	4.66
[24]	5.69

Source: the supplement of paper PMC5908809
